Data on 3 compounds can be found in paper PMC10182956 (Archives of Toxicology, 2023).

Series [1] has as its system HepaRG cells. Nature of the series: Cell viability assessment (WST-1 assay). Format: cell-based, human. The conditions noted are these: Homo sapiens, 24 h exposure, reference chemicals, 95% CI in brackets, read-out: EC50 µM (95% CI) from cell viability (WST-1). From the text: Undifferentiated HepaRG cells were purchased from Biopredic international (Saint Grégoire, France). HepaRG cells have unlimited growth capacity and phenotypic stability, stable enzymatic activities over 4 weeks of cultivation, and similar metabolic function to primary human hepatocytes, and also avoid limitations of primary cells such as donor variability and phenotypic instability (Aninat et al. [2006]; Guillouzo et al. [2007]; Lambert et al. [2009]; Lübberstedt et al. [2011]; Andersson et al. [2012]). The line contains two cell types, hepatocyte-like and cholangiocyte-like cells (Parent et al. [2004]), which allows for elucidation of cell-specific toxicity (Jossé et al. [2008]). Cells were seeded at a density of approximately 27′000 cells/cm^2 into a 150 × 25 mm petri dish and were cultured for 2 weeks in William’s E medium (cat. nr.: 32,551,020, ThermoFisher Scientific, Massachusetts, USA) supplemented with 2 mM glutamine, 10% (v/v) fetal bovine serum (FBS) good forte (cat. nr.: P40-47,500, PAN-Biotech, Aidenbach, Germany), 100 U/ml penicillin and 100 µg/ml streptomycin (cat. nr.: 15,140,122, ThermoFisher Scientific, Massachusetts, USA), 5 µg/ml Gibco recombinant AOF insulin (cat. nr.: A11382II, ThermoFisher Scientific, Massachusetts, USA) and 50 µM hydrocortisone hemisuccinate (cat. nr.: H4881, Sigma-Aldrich, St. Louis, USA) at 37 °C and 5% CO2. Differentiation was induced by culturing the cells for another 2 weeks in the above mentioned medium supplemented with 1.7% DMSO. After 4 weeks in culture, differentiated HepaRG cells were seeded at a high density of approximately 227′000 cells/cm^2 (72,000 cells/well with 100 µl per well) into black 96-well plates with a clear bottom (cat.nr.: 3603, Corning, New York, USA) and maintained for 10 days. After 10 days, cells were first adapted to treatment medium (culture medium containing 0.5% DMSO and 2% FBS) for 48 h and then used for cell viability and high-content imaging analysis.
Cell viability was analyzed using the WST-1 assay which is based on the measurement of mitochondrial dehydrogenase activity (cat. nr: ab155902, Abcam, Cambridge, UK). HepaRG cells were exposed to chemicals at defined concentrations for 24 h. Triton X-100 (0.01%) was a positive control. One hour before the end of incubation period, 10 µl of WST-1 reagent was added to each well, quickly mixed by shaking the plate, and returned to the cell culture incubator (37 °C, 5% CO2). After 1 h, absorbance was measured (450 nm, reference wavelength 620 nm) using a plate reader (Infinite M200 Pro, Tecan group, Männerdorf, Switzerland). Absorbance was then subtracted from the reference wavelength, corrected for background by subtracting values measured without cells, and then normalized to the solvent control, which was set to 100%. Dose–response data were fitted using drc package (Version 3.0.1) (Ritz et al. [2015]) in R 3.6.1. Data were from at least 3 independent experiments with 6 technical replicates per condition.

The subject of series [2] is HepaRG cells. Nature of the series: High-content imaging assay: lipid accumulation (Bodipy lipid droplets). The class given is cell-based. The conditions noted are these: HepaRG 24 h; for Lipid accumulation response (in words): population level, threshold ± 2 standard deviations of the response at the two lowest concentrations; for EC (BMC, 1 SD from control): Homo sapiens, lipid accumulation, Supplementary table 3, read-out: LA: Benchmark concentration (µM) per imaging endpoint calculated with BMDS software.

A short description of series [3]: IVIVE reverse dosimetry: oral equivalent dose (OED) from BMC. The conditions noted are these: IVIVE derived median over all positive imaging endpoints; rabbit simulation (R script); Table 2. From the text: (§1) Human data were used except where otherwise stated. […]
mc_OED_MEN_LD <- calc_mc_oral_equiv(2.835, chem.cas="58-27-5", model = "3compartmentss",species = "Rabbit",return.samples = T, samples=1000, httkpop = T) mc_OED_MEN_NM <- calc_mc_oral_equiv(8.1, chem.cas="58-27-5", model = "3compartmentss",species = "Rabbit", return.samples = T, samples=1000, httkpop = T) quantile_OED_MEN_LD <- quantile(mc_OED_MEN_LD, c(0.05, 0.5, 0.95), na.rm = TRUE) quantile_OED_MEN_NM <- quantile(mc_OED_MEN_NM, c(0.05, 0.5, 0.95), na.rm = TRUE)

A short description of series [4]: Published in vivo pharmacokinetics (Css, clearance). Conditions: for hepatocyte CLint: hepatocytes (back-calculated, no incubation), in vitro intrinsic hepatic clearance calculated from in vivo clearance with formula 3, read-out: Calculated Clint (ul/min/10^6 cells); for In vivo Css (µM): calculated with Css = (Dose*F)/(Cl*dosing interval) or k0/Cl from published pharmacokinetic parameters, ref Cunningham 2007, Adedayo Adedoyin, Leon Arons 1993b. The text has this:
For the model evaluation, Css of selected reference chemicals were predicted using formula 1 with the same dose rate from the in vivo Css measurements. For chemicals with no in vitro intrinsic hepatic clearance and fraction unbound values available in the database included in the httk package, in silico predictions from (Sipes et al. [2017]) were loaded using load_sipes2017(). […]. The formula to calculate Clint was derived from the function calc_hepatic_clearance within the httk package. Predicted Css values were then compared to published in vivo Css values. If there was no published in vivo Css available, Css was then calculated based on published in vivo pharmacokinetic parameters using the following formula (Supplementary table 3)4 Css(mg/L)=(Dose×F)/(Cl×dosinginterval)
Supplementary table 3. Comparison of benchmark concentration and predicted Css with published pharmacokinetic values. Where indicated, in vivo derived Css values were calculated using following formula: Css = (Dose*F)/(Cl*dosing interval) or Css = k0/Cl with F = bioavailability, Cl = clearance, k0 = infusion rate and Css = steady state concentration.

In series [5] the test system is HepaRG cells. Conditions: HepaRG 24 h, population level; threshold ± 2 standard deviations of the response at the two lowest concentrations.
Series [6] deals with HepaRG cells. The conditions noted are these: HepaRG 24 h; for Number of apoptotic cells (nuclear morphology) response (in words): population level, threshold ± 2 standard deviations of the response at the two lowest concentrations.
Description: (§2) Cellular responses were quantified using a high-content imaging approach (Fig. 1). Based on cell viability assessment, concentrations below the EC50 level were tested in the high-content imaging assay. After 24 h chemical exposure, live cells were incubated with CellROX, which reflects hydroxyl radi [...
Series [7] relates to HepaRG cells. Description: cells. Conditions: Homo sapiens, 24 h, read-out: NM: Benchmark concentration (µM) per imaging endpoint calculated with BMDS software.
Description: as §2
For series [8] the following is noted: cited from earlier work.
On the set-up of series [9]: method as in Literature column of Supplementary table 4. The conditions noted are these: value added to httk database; ref Supplementary table 4; cited from earlier work.
On the set-up of series [10]: method as in Hu et al. 1996. The conditions noted are these: fraction unbound plasma; rabbit; ref Hu et al. 1996; cited from earlier work.
In series [11] the test system is HepaRG cells. The conditions noted are these: HepaRG 24 h, population level; threshold ± 2 standard deviations of the response at the two lowest concentrations. The source holds these as a separate data set.
Details of series [12]: method as in Adedayo Adedoyin, Leon Arons 1993a. Conditions: rat; plasma clearance; ref Adedayo Adedoyin, Leon Arons 1993a; cited from earlier work.
On the set-up of series [13]: method as in Adedayo Adedoyin, Leon Arons 1993a. Conditions: fraction unbound plasma; rat; ref Adedayo Adedoyin, Leon Arons 1993a; cited from earlier work.
Series [14] is described as follows: IVIVE reverse dosimetry: oral equivalent dose (OED) from BMC. Conditions: IVIVE derived median over all positive imaging endpoints; rat simulation (R script); Table 2.
Text: as §1
mc_OED_WY14643_LD <- calc_mc_oral_equiv(40.98, chem.cas="50892-23-4", model = "3compartmentss",species="Rat", return.samples = T, samples=1000, httkpop = T) mc_OED_WY14643_MD <- calc_mc_oral_equiv(38.1, chem.cas="50892-23-4", model = "3compartmentss",species="Rat", return.samples = T, samples=1000, httkpop = T) mc_OED_WY14643_NM <- calc_mc_oral_equiv(386.28, chem.cas="50892-23-4", model = "3compartmentss",species="Rat", return.samples = T, samples=1000, httkpop = T)

For series [15], the system named is HepaRG cells. Description: cells. The conditions noted are these: Homo sapiens, 24 h, read-out: MMP: Benchmark concentration (µM) per imaging endpoint calculated with BMDS software.

Like-named read-outs stand apart in the source and are kept apart here.

Take `CC1=CC(=O)c2ccccc2C1=O` [menadione]: the EC50 – broadly, the concentration at which the effect is half-maximal – with HepaRG cells [1] was 59.1 µM. Besides, in the series with HepaRG cells [2], the “Lipid accumulation response (in words)” value was “increased in a dose-dependent manner” and the EC (BMC, 1 SD from control) was 2.8 µM. The “OED” value in series [3] is 55.4 mg/kg/day. For the same compound, the hepatocyte CLint in [4] (rabbit) was 58.3 µL/min/1e6 cells. Further, in the series on HepaRG cells [5], the “Oxidative stress response (in words)” value was “unexpected negative outcomes”. The “Concentration at which increase of number of apoptotic cells (nuclear morphology) exceeded the threshold” value with HepaRG cells [6] turned out to be 25 µM. Besides, the EC (BMC) in the series with HepaRG cells [7] is 8.1 µM. Further, the “In vivo Css (µM)” value in series [8] (in rabbits, reference cell empty) is listed as 12.6^4 µM. Also, the “In vivo clearance” value in series [8] (rabbit, ref Hu et al. 1996) is reported as 49.32 L/h. In addition, the lipophilicity (LogP) – broadly, a log measure of how a compound divides between an organic and an aqueous phase – in series [9] is on record as 2.2. The Fup in series [10] is given as 0.2.
For the compound `O=c1cc(-c2ccccc2)oc2ccc3ccccc3c12` [β-naphthoflavone], the “Lipid accumulation response (in words)” value with HepaRG cells [2] was “did not give rise to lipid accumulation”; in the series with HepaRG cells [2] (listed as BNF), “not”. Further, the hepatocyte CLint in series [4] (rat) is 23.4 µL/min/1e6 cells. Besides, in [4] (rat), the “In vivo Css (µM)” value is listed as 2.3^3 µM. For the same compound, the “Mitochondrial membrane potential response (in words)” value in the series on HepaRG cells [11] is given as “none of the hallmarks were induced”. Moreover, the “Oxidative stress response (in words)” value in the series on HepaRG cells [5] is listed as “none of the hallmarks were induced”. The “Number of apoptotic cells (nuclear morphology) response (in words)” value with HepaRG cells [6] is recorded as “none of the hallmarks were induced”. The “In vivo clearance (L/h)” value in [12] is on record as 1.3 (plasma clearance) L/h. The LogP in series [9] is 4.4. Further, in [13], the Fup was 0.04.
Take `Cc1cccc(Nc2cc(Cl)nc(SCC(=O)O)n2)c1C` [WY14643]: the “Lipid accumulation response (in words)” value with HepaRG cells [2] was “dose-dependently increased and exceeded the threshold”; in the series with HepaRG cells [2] (listed as WY-14693) it was “having the potential to induce lipid accumulation”. The values for the EC (BMC, 1 SD from control) with HepaRG cells [2] and in the series on HepaRG cells [15] were 41 µM and 38.1 µM, respectively. Moreover, the “OED” value in series [14] is 1.7 mg/kg/day. In addition, the “In vivo Css (µM)” value in series [4] (rat) is 2.5^3,5 µM. The “Mitochondrial membrane potential response (in words)” value in the series on HepaRG cells [11] is recorded as “MMP hyperpolarization”. The “Number of apoptotic cells (nuclear morphology) response (in words)” value with HepaRG cells [6] is “induced apoptosis”. For the same compound, in the series on HepaRG cells [7], the EC (BMC) is 386 µM.
